Tests used:
Assay type in all cases: cell-based
[1] = test system: LAP348 lac activator protein: E. coli lacI 5'N1 (SV40 nuclear localization signal) with HSV VP16 amino acids 369-488 inserted after lacI amino acid 348; experiment: Transient cotransfection CAT assay with or without IPTG in the growth medium (FIG. 6); details: 10 mM IPTG in growth medium; HeLa cells cotransfected with pL1-2CAT and pHCMVLAP348
Description: FIG. 6 Inhibition of LAP activity by IPTG. HeLa cells were plated out two days before transfection in normal media or media containing 10 mM IPTG. Transfections contained 2 μg of either pSV2CAT or pL1-2CAT alone or with 1 μg of pHCMVLAP348. Cells transfected in IPTG were fed with media containing 10 mM IPTG 16 hours after transfection. CAT assays were preformed as described in the text. The relative activities (RA) of each extract normalized to that produced by pSV2CAT are shown below the figure.
(§1) Cells were transfected by the calcium phosphate precipitation method as previously described (Wigler et al., 1979, Proc. Natl. Acad. Sci. USA 76:1373-1376). For transient expression assays, 50-70% confluent […] of cells were incubated overnight after addition to the media of a 1 ml precipitate containing 2 μg of reporter and 1 μg of effector plasmids and carrier DNA (high molecular weight calf thymus DNA) for a total of 25 μg of DNA. The media and precipitate were removed and replaced with fresh media the next morning.
Cells were harvested 44-48 hours after transfection and CAT assays performed essentially as described (Gorman et al., 1982, Mol. Cell Biol. 2:1044-1051). Equal amounts (30-200 μg) of protein were used in each experiment. CAT activity was quantitated by thin layer chromatography and liquid scintillation counting of spots. […]

[2] = test system: LAP267 temperature-sensitive lac activator protein: E. coli lacI 5'N1 with HSV VP16 segment inserted after lacI amino acid 267; experiment: CAT expression from pL14CAT as a function of IPTG concentration at 39.5° C. (FIG. 9); details: 39.5° C. (non-permissive temperature); HeLa cells cotransfected with LAP267 and pL14CAT
Description: FIG. 9 Reverse-regulatory effect of IPTG on transactivator activity of LAP267 at 39.5° C.
LAP267 was constructed as described for LAP348 in Section 6.1.1., supra, except that the VP16 segment was inserted at an EcoRV site after amino acid 267 in the lacI coding region (FIG. 1A).
HeLa cells were cotransfected with plasmids encoding the LAP267 or LAP348 activator protein and pL14CAT, encoding CAT reporter gene. […] This property enables the expression of genes controlled by LAP267 to be induced at 39.5° C. by addition of IPTG to the culture medium.

[3] = test system: LAP348 lac activator protein: E. coli lacI 5'N1 with HSV VP16 amino acids 369-488 inserted after lacI amino acid 348, stably expressed; experiment: CAT assay in cell line stably expressing LAP348, with or without IPTG (FIG. 8); details: IPTG (10 mM per FIG. 8 legend) added to medium two days before transfection; LAPneo2b cells
Description: FIG. 8 Inhibition of LAP348 activity of L3 cells by IPTG. Either LTK or L3, or L3 cells grown in the presence of 10 mM IPTG (L3+i) for 48 hours before transfection, were transfected with either pSV2cat or pL1-2cat as indicated. The relative activity of the extracts normalized to that produced by SV2cat in Ltk- cells are shown below.
as §1
Cells were harvested 44-48 hours after transfection and CAT assays performed essentially as described (Gorman et al., 1982, Mol. Cell Biol. 2:1044-1051). Equal amounts (30-200 μg) of protein were used in each experiment. CAT activity was quantitated by thin layer chromatography and liquid scintillation counting of spots. Extracts that converted greater than 80% of the chloramphenicol in an assay were diluted appropriately to ensure linearity of the assay. […]

Compound: CC(C)S[C@@H]1O[C@H](CO)[C@H](O)[C@H](O)[C@H]1O [IPTG, isopropyl β-D-thiogalactoside]
- reduction of the level of activation of pL1-2CAT by LAP348 [1]: greater than 10 fold
- effect of IPTG on transactivator activity of LAP267 [2]: reverse regulator
- reduction of expression of pL1-2CAT in LAP348-expressing cell line [3]: greater than 30 fold

— patent US5674730A, “Eukaryotic cells comprising a DNA sequence encoding a bacterial-viral chimeric transactivator protein” (priority 1993, dated 1997)
